Legend:
Assay type in all cases: cell-based
SAS cells = assay: SAS CTG proliferation assay (120 h) (HNSCC, wt amplified)
Method: SAS CTG Proliferation Assay (120 h) (HNSCC, Wt Amplified)
(§1) SAS cells (JCRB0260) are dispensed into 384-well plates, flat and clear bottom (Greiner, PNr. 781091) at a density of 300 cells per well in 60 μL DMEM:F12 (Gibco 31330-038)+10% Fetal Calf Serum (HyClone, PNr.: SH30084.03) and incubated at 37° C. in a CO2 incubator overnight. The next day, compounds (10 mM stock in DMSO) are added with the ECHO acoustic liquid handler system (Beckman Coulter), including DMSO controls. Plates are incubated for 120 h, and cell viability is measured using CellTiter-Glo luminescent cell viability reagent (Promega product code G7570). Viability (stated as percent of control) is defined as relative luminescence units RLU of each well divided by the RLU of cells in DMSO controls. IC50 values are determined from viability measurements by non-linear regression using a four-parameter model.

LOVO cells = assay: LOVO CTG proliferation assay (120 h) (CRC, G13D); conditions: Homo sapiens
Method: LOVO CTG Proliferation Assay (120 h) (CRC, G13D)
as §1, with “LOVO cells (ATCC” for “SAS cells (JCRB0260)”, “LOVO cells (ATCC CCL-229) are dispensed” for “SAS cells (JCRB0260) are dispensed”, “density of 1000 cells per” for “density of 300 cells per”, “60 μL DMEM (Sigma D6429)+10% Fetal Calf” for “60 μL DMEM:F12 (Gibco 31330-038)+10% Fetal Calf”

SW620 cells = assay: SW620 cell proliferation assay (colorectal cancer, G12V), 5 days; conditions: Homo sapiens, SW-620, 120 h
Procedure, shortened: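 SW620 cells (2000/well, DMEM with 10% FCS) exposed to a logarithmic compound dilution series for 5 days. Viability by CellTiter-Glo luminescence as percent of DMSO control; IC50 from a four-parameter logistic fit.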

KRAS(G12D) = molecular target: T1, KRAS(G12D) (Homo sapiens, UniProt P01116, G12D); assay: HiBit degradation assay in GP5d-HiBit-KRAS(G12D) cells (18 h; DC50, Dmax)
T1 construct: introduced immediately downstream of the initiating Methionine codon of the endogenous KRAS locus; host or cells: GP5d-HiBit-KRAS(G12D), a CRISPR knock-in at the endogenous locus
Procedure, shortened: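 GP5d cells carry an endogenous N-terminal HiBit tag on KRAS(G12D), knocked in by CRISPR. They were seeded overnight in DMEM/10% FCS, exposed to compound for 18 h at 37° C, then lysed for HiBit luminescence, normalised to DMSO. DC50 comes from a four-parameter logistic fit; Dmax is maximal degradation as % of control.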

SK—CO-1 cells = assay: SK-CO-1 CTG proliferation assay (120 h) (CRC, G12V); conditions: Homo sapiens, SK-CO-1 proliferation
Method: SK—CO-1 CTG Proliferation Assay (120 h) (CRC, G12V)
as §1, with “SK—CO-1 cells (ATCC” for “SAS cells (JCRB0260)”, “SK—CO-1 cells (ATCC HTB-39) are dispensed” for “SAS cells (JCRB0260) are dispensed”, “density of 500 cells per” for “density of 300 cells per”, “60 μL EMEM (Sigma M5650)+10% Fetal Calf” for “60 μL DMEM:F12 (Gibco 31330-038)+10% Fetal Calf”

T1 sequence (P01116 1-188 isoform P01116-2 G12D): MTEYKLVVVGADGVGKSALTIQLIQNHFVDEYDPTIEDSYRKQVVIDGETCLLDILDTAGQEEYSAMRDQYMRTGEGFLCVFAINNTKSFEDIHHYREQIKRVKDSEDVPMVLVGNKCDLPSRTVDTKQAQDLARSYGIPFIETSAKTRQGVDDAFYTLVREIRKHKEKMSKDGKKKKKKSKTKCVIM

SMILES	IC50 (SAS cells) [µM]	IC50 (LOVO cells) [µM]	IC50 (SW620 cells) [µM]	DC50 (KRAS(G12D)) [µM]	Dmax 18 h (KRAS(G12D)) [% Ctrl]	IC50 (SK—CO-1 cells) [µM]
Cc1ncsc1-c1ccc([C@@H](NC(=O)[C@@H]2C[C@@H](O)CN2C(=O)[C@H](C(C)C)n2cc(OCCCN3CCCN(c4nccc(-c5noc([C@@]6(C)CCCc7sc(N)c(C#N)c76)n5)n4)[C@@H](C)C3)nn2)[C@H](O)C(C)C)cc1 (single isomer, unassigned) [I-43]	0.411	0.0222	0.0094	0.0012	93	0.0262
Cc1ncsc1-c1ccc(CNC(=O)[C@@H]2C[C@@H](O)CN2C(=O)[C@H](c2cc(OCCCN3CCCN(c4nccc(-c5noc([C@@]6(C)CCCc7sc(N)c(C#N)c76)n5)n4)[C@@H](C)C3)no2)C(C)C)cc1 (single isomer, unassigned) [I-24]	1.31	1.95	0.802	0.2	81	2.22
CC(C)C(C(=O)N1C[C@H](O)C[C@H]1C(=O)NCc1ccc(C#N)cc1)c1cc(OCCCCN2CCCN(c3nccc(-c4noc([C@@]5(C)CCCc6sc(N)c(C#N)c65)n4)n3)[C@@H](C)C2)no1 (stereo partly drawn) [I-16]	0.0297	1.82	0.0371	0.0039	91	0.184
Cc1ncsc1-c1ccc([C@@H](NC(=O)[C@@H]2C[C@@H](O)CN2C(=O)[C@H](C(C)C)n2cc(OCCCCN3CCCN(c4nccc(-c5noc([C@@]6(C)CCCc7sc(N)c(C#N)c76)n5)n4)[C@@H](C)C3)nn2)[C@H](C)O)cc1 (single isomer, unassigned) [I-41]	0.0303	0.0293	0.0105	0.0016	94	0.0226
Cc1ncsc1-c1ccc([C@H](CO)NC(=O)[C@@H]2C[C@@H](O)CN2C(=O)[C@H](C(C)C)n2cc(OC(C)CCCN3CCCN(c4nccc(-c5noc([C@@]6(C)CCCc7sc(N)c(C#N)c76)n5)n4)[C@@H](C)C3)nn2)cc1 (stereo partly drawn) [I-31]	0.09	0.344	0.0621	0.0044	93	0.132
Cc1ncsc1-c1ccc(CNC(=O)[C@@H]2C[C@@H](O)CN2C(=O)C(c2cc(OCCCCN3CCCN(c4nccc(-c5cc([C@@]6(C)CCCc7sc(N)c(C#N)c76)on5)n4)[C@@H](C)C3)no2)C(C)C)cc1 (stereo partly drawn) [I-4]	0.628	0.425	0.0534	0.0043	94	0.207
Cc1ncsc1-c1ccc([C@H](C)NC(=O)[C@@H]2C[C@@H](O)CN2C(=O)C(C(C)C)n2cc(OCCCCN3CCCN(c4nccc(-c5noc([C@@]6(C)CCCc7sc(N)c(C#N)c76)n5)n4)[C@@H](C)C3)nn2)cc1 (stereo partly drawn) [I-28]	0.0583	0.649	0.0132	0.0015	93	0.045
Cc1ncsc1-c1ccc(CNC(=O)[C@@H]2C[C@@H](O)CN2C(=O)[C@@H](c2cc(OCCCN3CCCN(c4nccc(-c5noc([C@@]6(C)CCCc7sc(N)c(C#N)c76)n5)n4)[C@@H](C)C3)no2)C(C)C)cc1 (single isomer, unassigned) [I-25]	0.0178	0.0535	0.00988	0.0023	94	0.0573
Cc1ncsc1-c1ccc([C@H](CO)NC(=O)[C@@H]2C[C@@H](O)CN2C(=O)[C@H](C(C)C)n2cc(OCCCCN3CCCN(c4nccc(-c5noc([C@@]6(C)CCCc7sc(N)c(C#N)c76)n5)n4)[C@@H](C)C3)nn2)cc1 [I-29]	0.548	0.044	0.0264	0.002	93	0.0243
Cc1ncsc1-c1ccc([C@H](CCO)NC(=O)[C@@H]2C[C@@H](O)CN2C(=O)[C@H](C(C)C)n2cc(OCCCCN3CCCN(c4nccc(-c5noc([C@@]6(C)CCCc7sc(N)c(C#N)c76)n5)n4)[C@@H](C)C3)nn2)cc1 [I-38]	0.0581	0.597	0.0284	0.0033	93	0.117
Cc1ncsc1-c1ccc(CNC(=O)[C@@H]2C[C@@H](O)CN2C(=O)[C@@H](c2cc(OCCCCN3CCCN(c4nccc(-c5noc([C@@]6(C)CCCc7sc(N)c(C#N)c76)n5)n4)[C@@H](C)C3)no2)C(C)C)cc1 (single isomer, unassigned) [I-27]	0.0946	0.0409	0.0149	0.0029	93	0.0517
Cc1ncsc1-c1ccc([C@H](CO)NC(=O)[C@@H]2C[C@@H](O)CN2C(=O)[C@H](C(C)C)n2cc(OCCCC(C)N3CCCN(c4nccc(-c5noc([C@@]6(C)CCCc7sc(N)c(C#N)c76)n5)n4)[C@@H](C)C3)nn2)cc1 (stereo partly drawn) [I-30]	0.0152	0.0864	0.018	0.0014	94	0.0297
Cc1ncsc1-c1ccc([C@@H](NC(=O)[C@@H]2C[C@@H](O)CN2C(=O)[C@H](C(C)C)n2cc(OCCCCN3CCCN(c4nccc(-c5noc([C@@]6(C)CCCc7sc(N)c(C#N)c76)n5)n4)[C@@H](C)C3)nn2)[C@H](O)C(C)C)cc1 (single isomer, unassigned) [I-45]	1.81	0.043	0.0145	0.0014	93	0.0333
